Consider six molecules from patent US20030114354A1, “Polynucleotide encoding a novel potassium channel with homology to the ether-a-go-go family, HEAG2” (priority 2001, published 2003).

The target in one assay is T1, hEAG2 (Homo sapiens, UniProt Q8NCM2).
T1 construct: The complete open reading frame of HEAG2 cDNA was cloned into an Invitrogen native expression Gateway entry vector; expressed in transfected cells; host or cells: CHO cells, transient co-transfection with GFP DNA (Lipofectamine Plus)
T1 sequence (Q8NCM2 1-988): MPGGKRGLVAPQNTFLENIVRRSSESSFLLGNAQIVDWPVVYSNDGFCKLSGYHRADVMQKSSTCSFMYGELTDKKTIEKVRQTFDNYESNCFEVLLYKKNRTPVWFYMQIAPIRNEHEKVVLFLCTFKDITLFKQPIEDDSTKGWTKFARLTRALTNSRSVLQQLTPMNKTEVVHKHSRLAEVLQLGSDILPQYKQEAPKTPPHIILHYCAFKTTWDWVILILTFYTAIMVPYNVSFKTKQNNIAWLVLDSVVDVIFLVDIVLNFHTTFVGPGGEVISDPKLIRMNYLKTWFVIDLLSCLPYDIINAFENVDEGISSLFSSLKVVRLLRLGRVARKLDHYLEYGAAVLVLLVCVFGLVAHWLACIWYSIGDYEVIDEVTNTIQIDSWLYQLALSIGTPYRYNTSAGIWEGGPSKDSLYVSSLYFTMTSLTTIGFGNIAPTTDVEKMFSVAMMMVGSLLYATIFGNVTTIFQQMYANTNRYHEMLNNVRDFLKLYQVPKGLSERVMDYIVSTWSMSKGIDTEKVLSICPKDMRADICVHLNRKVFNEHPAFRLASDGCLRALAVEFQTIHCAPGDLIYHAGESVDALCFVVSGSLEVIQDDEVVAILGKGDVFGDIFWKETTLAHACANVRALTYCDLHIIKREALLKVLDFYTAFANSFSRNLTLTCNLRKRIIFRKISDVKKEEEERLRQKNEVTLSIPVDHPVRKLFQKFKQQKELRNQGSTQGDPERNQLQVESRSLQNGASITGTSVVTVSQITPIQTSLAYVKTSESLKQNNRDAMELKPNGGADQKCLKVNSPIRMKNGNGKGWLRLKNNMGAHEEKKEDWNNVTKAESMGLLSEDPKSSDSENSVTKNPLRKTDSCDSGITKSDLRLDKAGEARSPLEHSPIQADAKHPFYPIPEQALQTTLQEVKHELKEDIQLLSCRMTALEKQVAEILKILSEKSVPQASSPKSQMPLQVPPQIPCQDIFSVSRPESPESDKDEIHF
Put plainly: Whole cell electrophysiology of hEAG2 and GFP cotransfected CHO cells. The class given is cell-based. The protocol: CHO cells were plated in growth medium at 10% (1.2×10^5 cells/dish) and 20% (2.4×10^5 cells/dish) confluence in poly-lysine coated 35 mm dishes. After 24 hours, the growth medium was removed, and cells were rinsed with Optimem (Invitrogen # 31985-070), then refed 0.8 ml Optimem. Cells were transiently co-transfected with 0.5 ug hEAG2 DNA in the pDEST vector, and 0.5 ug of GFP DNA using Lipofectamine Plus (Invitrogen # 10964-013). Three hours post transfection, the transfection mix was removed, and cells were refed with 2 ml growth medium. Twenty four hours post transfection, cells were again refed 2 ml fresh growth medium. Cells were used in experiments 24-72 hrs post transfection. Control experiments were performed in CHO cells transiently transfected with 1 μg of GFP DNA. CHO growth medium is Iscove's medium (Invitrogen #12440)+10% FBS, 1× non-essential amino acids(Invitrogen #12383-014) and 1× HT Supplement (Invitrogen #11067-030). All chemicals were purchased from Sigma Chemicals, St. Louis Mo. The internal solution contained (in mM): KCl 130, MgCl2 1, CaCl2 1, HEPES 10, EGTA 10, and was titrated to a pH of 7.2. […] The bath solution contained (in mM) NaCl 140, KCl 4, MgCl2 1, CaCl2 1.8, HEPES 10, Glucose 10, and was titrated to a pH of 7.4. For some experiments the bath solution was modified by the addition of 1 or 5 mM BaCl2, by changing the concentration of MgCl2 to 0 or 10 mM or by reducing NaCl to 104 mM and increasing KCl to 40 mM. During data recording, cells were constantly superfused with bath solution delivered through a fused silica perfusion tip, internal diameter […]. Solution changes were accomplished through the use of a […]16 multichannel perfusion system from AutoMate Scientific, San Francisco Calif. Currents were recorded on an EPC-9 amplifier (HEKA Electronik, Lambrecht/Pfalz, Germany), controlled through the Pulse software package. Currents were sampled at 10 kHz and filtered at 3.3 kHz. Pipettes were constructed from thin walled borosilicate capillary tubing (Warner Instruments Corp., Hamden Conn.), and pulled to a resistance of 1.5-3 MΩ on a P-97 micropipette puller (Sutter Instrument Co., Novato Calif.). All experiments were conducted at 20° C. Following the establishment of a Gigaohm seal and whole cell access, cells were held at -80 mV. […] All stimulation protocols were applied at 0.1 Hz.

A further assay concerns Human lung fibroblasts. Put plainly: Human lung fibroblast proliferation assay (Alamar Blue). The class given is cell-based. Particulars: 3 days in basal medium. The protocol:
Human lung fibroblasts are obtained from Clonetics (San Diego, Calif.) and maintained in growth media from Clonetics. Dermal microvascular endothelial cells are obtained from Cell Applications (San Diego, Calif.). For proliferation assays, the human lung fibroblasts and dermal microvascular endothelial cells can be cultured at 5,000 cells/well in a 96-well plate for one day in growth medium. The cells are then incubated for one day in 0.1% BSA basal medium. After replacing the medium with fresh 0.1% BSA medium, the cells are incubated with the test proteins for 3 days. Alamar Blue (Alamar Biosciences, Sacramento, Calif.) is added to each well to a final concentration of 10%. The cells are incubated for 4 hr. Cell viability is measured by reading in a CytoFluor fluorescence reader. For the PGE2 assays, the human lung fibroblasts are cultured at 5,000 cells/well in a 96-well plate for one day. […]
(Resazurin is reduced to fluorescent resorufin, in cell work by metabolically active cells.)

Assay [1] concerns nigral dopaminergic neurons. Particulars: gel foam implants in the striatum; cited from earlier work.
For another assay, the system named is Eag proteins. Particulars: intracellular Ca++; read-out: half-maximal inhibition concentration; cited from earlier work.
For assay [2] the following is noted: picogram quantities, female recipients; cited from earlier work.

As for `[K+]` [K^+, KCl], the tail reversal potential result at hEAG2 (increased extracellular K^+ (KCl 40 mM, NaCl 104 mM)) is given as “approximately −40 mV”. Take `[Ba+2].[Cl-].[Cl-]` [Ba^++, BaCl2]: on hEAG2 (addition of Ba^++ to the extracellular solution (bath + 1 or 5 mM BaCl2), depolarization to +40 mV for 1 sec, 20° C), the steady state current entry is given as “apparent reduction”. On to “FGF-2: Fibroblast growth factor 2 (basic FGF), comparator protein for the polypeptides of the invention”, for which, in the assay on Human lung fibroblasts, the “stimulation of growth of human lung fibroblasts, concentration showing stimulation” value was 10 to 2500 ng/mL. In addition, the “protection of nigral dopaminergic neurons from toxicity associated with MPTP exposure” value in assay [1] was “near complete protection”.

On to `[Mg+2]` [Mg^++, MgCl2], for which the “activation rate of the current” value at hEAG2 (Mg^++ free bath (MgCl2 0 mM)) was “much faster”; at hEAG2 (increased bath Mg^++ (MgCl2 10 mM)), “dramatically slowed”.

In the case of `[Ca+2]` [Ca++], the IC50 in the assay with Eag proteins was about 100 nM. Turning to `C[C@@]12C=CC[C@H]1[C@@H]1CCC3=CC(=O)CC[C@]3(C)[C@H]1CC2` [androstadienone], the “nervousness, tension and other negative feelings” value in assay [2] is on record as “significant reduction”.
